Drawing on patent US20240182445A1 (ONO PHARMACEUTICAL CO., LTD., priority 2019, published 2024), this text covers IC50 for 26 compounds.

The structures appear in SMILES notation.

One assay concerns the target T1, human TREK-1 (Homo sapiens, UniProt O95069).
T1 construct: expressed in transfected cells
T1 sequence (O95069 1-426): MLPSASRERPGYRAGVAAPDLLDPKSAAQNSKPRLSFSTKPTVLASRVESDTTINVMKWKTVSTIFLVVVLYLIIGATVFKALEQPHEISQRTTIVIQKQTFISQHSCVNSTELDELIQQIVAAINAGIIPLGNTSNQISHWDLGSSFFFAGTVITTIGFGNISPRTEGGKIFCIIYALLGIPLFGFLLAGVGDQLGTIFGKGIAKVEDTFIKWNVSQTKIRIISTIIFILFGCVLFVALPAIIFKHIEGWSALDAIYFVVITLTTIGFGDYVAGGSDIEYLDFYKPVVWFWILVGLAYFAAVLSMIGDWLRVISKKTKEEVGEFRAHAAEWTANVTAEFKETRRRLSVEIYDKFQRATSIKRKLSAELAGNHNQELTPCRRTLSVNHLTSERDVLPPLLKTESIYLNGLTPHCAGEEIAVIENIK
Briefly: TREK-1 Thallium (Tl+) flux assay, Method 1. To be noted: TREK-1 Thallium (Tl+) flux assay, Method 1. It is filed as cell-based. The method in brief: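 Readout: Thallos fluorescence ratio, taken 25 s post-thallium relative to the pre-thallium baseline average, then converted to % inhibition. Cells were CHO-K1 stably expressing human TREK-1, dye-loaded and exposed to test compound (vehicle 0.3% DMSO) for 10 min prior to thallium stimulation.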
In the case of `COc1ccc(-c2cnc(NC(=O)c3c(Cl)cnn3C3CCN(C(=O)OC(C)(C)C)CC3)c(C)c2)cn1` [Compound 407, tert-butyl 4-(4-chloro-5-((6′-methoxy-5-methyl-[3,3′-bipyridin]-6-yl)carbamoyl)-1H-pyrazol-1-yl)piperidine-1-carboxylate], the IC50 was found to be 2570 nM.
The same measure, in the same setting: the same measure for `CC(=O)N1CCC(n2ncc(Cl)c2C(=O)Nc2ncc(-c3ccc(OC(F)(F)F)cc3)cc2C)CC1` [Compound 414, 1-(1-acetylpiperidin-4-yl)-4-chloro-N-(3-methyl-5-(4-(trifluoromethoxy)phenyl)pyridin-2-yl)-1H-pyrazole-5-carboxamide]: 3620 nM; for `CCOc1ccc(-c2cnc(NC(=O)c3c(Cl)cnn3C3CCN(C(=O)OC(C)(C)C)CC3)c(C)c2)cc1` [Compound 431, tert-butyl 4-(4-chloro-5-((5-(4-ethoxyphenyl)-3-methylpyridin-2-yl)carbamoyl)-1H-pyrazol-1-yl)piperidine-1-carboxylate]: 6400 nM.
For `COc1c(F)cc(-c2cnc(NC(=O)c3c(Cl)cnn3C3CCN(C(C)=O)CC3)c(C)c2)cc1F` [Compound 428, 1-(1-acetylpiperidin-4-yl)-4-chloro-N-(5-(3,5-difluoro-4-methoxyphenyl)-3-methylpyridin-2-yl)-1H-pyrazole-5-carboxamide], the IC50 came to 5310 nM.

Staying with this assay, now noted: TREK-1 Thallium (Tl+) flux assay; no *^12 (Method 2) mark on these rows.
`Cc1cc(C#Cc2ccc(F)cc2)cnc1NC(=O)c1c(Cl)cnn1[C@H]1C[C@H](NC(=O)C2CC2)C1` [Compound 198, 4-chloro-1-(trans-3-(cyclopropanecarboxamido)cyclobutyl)-N-(5-((4-fluorophenyl)ethynyl)-3-methylpyridin-2-yl)-1H-pyrazole-5-carboxamide]: the IC50 came out at 300 nM.
In turn, `CC(=O)N1CC[C@@H](Cn2ncc(Cl)c2C(=O)Nc2ncc(C#Cc3ccc(F)cc3)cc2C)[C@H](F)C1` [Compound 341, 1-(((3S,4S)-1-acetyl-3-fluoropiperidin-4-yl)methyl)-4-chloro-N-(5-((4-fluorophenyl)ethynyl)-3-methylpyridin-2-yl)-1H-pyrazole-5-carboxamide] returned an IC50 of 740 nM.
Same read-out and setting: the same measure for `CC(C)(C)OC(=O)N1CCC2(CC1)CC(n1ncc(Cl)c1C(=O)Nc1ncc(C#Cc3ccccc3)cc1F)C2` [Compound 346, tert-butyl 2-(4-chloro-5-((3-fluoro-5-(phenylethynyl)pyridin-2-yl)carbamoyl)-1H-pyrazol-1-yl)-7-azaspiro[3.5]nonane-7-carboxylate]: 770 nM; for `CC(=O)N1C[C@H]2C[C@H](n3ncc(Cl)c3C(=O)Nc3ncc(C#Cc4ccccc4F)cc3C)C[C@H]2C1` [Compound 359, 1-[(3aR,5s,6aS)-2-acetyloctahydrocyclopenta[c]pyrrol-5-yl]-4-chloro-N-{5-[(2-fluorophenyl)ethynyl]-3-methylpyridin-2-yl}-1H-pyrazole-5-carboxamide]: 900 nM.
The compound `Cc1cc(C#Cc2ccccc2)cnc1NC(=O)c1c(Cl)cnn1[C@H]1C[C@@H](NC(=O)OC(C)(C)C)C1` [Compound 357, tert-butyl (cis-3-(4-chloro-5-((3-methyl-5-(phenylethynyl)pyridin-2-yl)carbamoyl)-1H-pyrazol-1-yl)cyclobutyl)carbamate] had an IC50 of 870 nM.
Take `Cc1cc(C#Cc2ccccc2)cnc1NC(=O)c1c(Cl)cnn1CCC1CCN(C(=O)OC(C)(C)C)CC1` [Compound 308, tert-butyl 4-(2-(4-chloro-5-((3-methyl-5-(phenylethynyl)pyridin-2-yl)carbamoyl)-1H-pyrazol-1-yl)ethyl)piperidine-1-carboxylate]: the IC50 worked out at 580 nM.
For the compound `Cc1cc(C#Cc2ccc(F)cc2)cnc1NC(=O)c1c(Cl)cnn1CC1C2CC1CN(C(=O)C(C)C)C2` (centres unmarked) [Compound 314, 4-chloro-N-(5-((4-fluorophenyl)ethynyl)-3-methylpyridin-2-yl)-1-((3-isobutyryl-3-azabicyclo[3.1.1]heptan-6-yl)methyl)-1H-pyrazole-5-carboxamide], inhibition was half-maximal at 590 nM (IC50).
For `CCN1CC(n2ncc(Cl)c2C(=O)Nc2ncc(C#Cc3ccccc3)cc2F)C1` [Compound 373, 4-chloro-1-(1-ethylazetidin-3-yl)-N-(3-fluoro-5-(phenylethynyl)pyridin-2-yl)-1H-pyrazole-5-carboxamide hydrate], the IC50 turned out to be 1100 nM.
Take `CC(C)C(=O)N1CCC(Cn2ncc(Cl)c2C(=O)Nc2ncc(C#Cc3ccccc3)cc2F)C(F)(F)C1` (centres unmarked) [Compound 216, 4-chloro-1-((3,3-difluoro-1-isobutyrylpiperidin-4-yl)methyl)-N-(3-fluoro-5-(phenylethynyl)pyridin-2-yl)-1H-pyrazole-5-carboxamide]: the IC50 is 330 nM.
In the case of `CC(=O)N1CCC(C(C)n2ncc(Cl)c2C(=O)Nc2ncc(C#Cc3ccccc3)cc2C)CC1` (single isomer, unassigned) [Compound 197, 1-[(1R)-1-(1-acetylpiperidin-4-yl)ethyl]-4-chloro-N-[3-methyl-5-(phenylethynyl)pyridin-2-yl]-1H-pyrazole-5-carboxamide or 1-[(1S)-1-(1-acetylpiperidin-4-yl)ethyl]-4-chloro-N-[3-methyl-5-(phenylethynyl)pyridin-2-yl]-1H-pyrazole-5-carboxamide], the IC50 is 300 nM.
`Cc1cc(C#Cc2ccccc2)cnc1NC(=O)c1c(Cl)cnn1CC1(C#N)CCCC1` [Compound 242, 4-chloro-1-((1-cyanocyclopentyl)methyl)-N-(3-methyl-5-(phenylethynyl)pyridin-2-yl)-1H-pyrazole-5-carboxamide] gave an IC50 of 380 nM.
The compound `CC(C)(C)OC(=O)N1CC[C@@H](n2ncc(Cl)c2C(=O)Nc2ncc(C#Cc3ccccc3)cc2F)[C@H](F)C1` [Compound 337, tert-butyl (3R,4R)-4-(4-chloro-5-((3-fluoro-5-(phenylethynyl)pyridin-2-yl)carbamoyl)-1H-pyrazol-1-yl)-3-fluoropiperidine-1-carboxylate] returned an IC50 of 720 nM.
For `CC(=O)N1CCC(n2ncc(Cl)c2C(=O)Nc2ncc(C#Cc3ccc(F)cc3)cc2F)[C@H](F)C1` (stereo in doubt) [Compound 213, 1-((3R,4R)-1-acetyl-3-fluoropiperidin-4-yl)-4-chloro-N-(3-fluoro-5-((4-fluorophenyl)ethynyl)pyridin-2-yl)-1H-pyrazole-5-carboxamide], the midpoint of inhibition, the IC50, lay at 330 nM.
`Cc1cc(C#Cc2ccccc2)cnc1NC(=O)c1c(Cl)cnn1CC1CC(C)OC(C)C1` (centres unmarked) [Compound 340, 4-chloro-1-((2,6-dimethyltetrahydro-2H-pyran-4-yl)methyl)-N-(3-methyl-5-(phenylethynyl)pyridin-2-yl)-1H-pyrazole-5-carboxamide] came in with an IC50 of 740 nM.

The assay is the same for the next values; noted with them: TREK-1 Thallium (Tl+) flux assay; values without footnote *12 are Method 1.
In the case of `CCC(=O)N1CCC(n2ncc(Cl)c2C(=O)Nc2ncc(C#Cc3ccccc3)cc2C)CC1` [Compound 41, 4-chloro-N-(3-methyl-5-(phenylethynyl)pyridin-2-yl)-1-(1-propionylpiperidin-4-yl)-1H-pyrazole-5-carboxamide], 130 nM corresponded to half-maximal inhibition (IC50).
Consider `Cc1cc(C#Cc2ccccc2)cnc1NC(=O)c1c(Cl)cnn1C1CCN(C(=O)C(C)C)CC1` [Compound 169], for which 270 nM corresponded to half-maximal inhibition (IC50).
For the compound `CC(=O)N[C@H]1C[C@H](n2ncc(Cl)c2C(=O)Nc2ncc(C#Cc3ccccc3)cc2C)C1` [Compound 156, 1-(trans-3-acetamidocyclobutyl)-4-chloro-N-(3-methyl-5-(phenylethynyl)pyridin-2-yl)-1H-pyrazole-5-carboxamide], the concentration for half-maximal inhibition (IC50) was 240 nM.
Take `CC(=O)N1CC[C@@H](Cn2ncc(Cl)c2C(=O)Nc2ncc(C#Cc3ccccc3)cc2F)[C@@H](F)C1` [Compound 88, 1-(((3R,4S)-1-acetyl-3-fluoropiperidin-4-yl)methyl)-4-chloro-N-(3-fluoro-5-(phenylethynyl)pyridin-2-yl)-1H-pyrazole-5-carboxamide]: the midpoint of inhibition, the IC50, lay at 170 nM.
Still for that read-out and setting: next, `CCNC(=O)N1C[C@H]2C[C@H](n3ncc(Cl)c3C(=O)Nc3ncc(C#Cc4cccs4)cc3C)C[C@H]2C1` [Compound 74, (3aR,5s,6aS)-5-[4-chloro-5-({3-methyl-5-[(thiophen-2-yl)ethynyl]pyridin-2-yl}carbamoyl)-1H-pyrazol-1-yl]-N-ethylhexahydrocyclopenta[c]pyrrole-2(1H)-carboxamide]: 160 nM; `CC(=O)N1CCC(Cn2ncc(Cl)c2C(=O)Nc2ncc(C#Cc3ccccc3)cc2F)C(F)(F)C1` (centres unmarked) [Compound 192, 1-((1-acetyl-3,3-difluoropiperidin-4-yl)methyl)-4-chloro-N-(3-fluoro-5-(phenylethynyl)pyridin-2-yl)-1H-pyrazole-5-carboxamide]: 290 nM.
Take `CC(=O)N[C@H]1C[C@@H](n2ncc(Cl)c2C(=O)Nc2ncc(C#Cc3ccccc3)cc2F)C1` [Compound 94, 1-(cis-3-acetamidocyclobutyl)-4-chloro-N-(3-fluoro-5-(phenylethynyl)pyridin-2-yl)-1H-pyrazole-5-carboxamide]: the IC50 is 180 nM.
In turn, `CC(=O)N1CCCC(Cn2ncc(Cl)c2C(=O)Nc2ncc(C#Cc3ccccc3)cc2F)C1` (centres unmarked) [Compound 177, 1-((1-acetylpiperidin-3-yl)methyl)-4-chloro-N-(3-fluoro-5-(phenylethynyl)pyridin-2-yl)-1H-pyrazole-5-carboxamide] gave an IC50 of 270 nM.

The term IC50 denotes the midpoint of a concentration-inhibition curve. Higher therefore signals weaker potency in that assay.
